From the NIST ThermoML archive (doi:10.1016/j.jct.2015.02.024) come the findings set out here.

This data set is described as follows: activity coefficient (dimensionless); of the first substance listed, at infinite dilution; xn = mol fraction of the nth substance listed. As to conditions: 101 kPa, Liquid, Chromatography, x1 = 0.

± gives the expanded uncertainty stated by the source.

`C1CCCCCCC1` [cyclooctane] + C[N+]1(CCCO)CCOCC1.O=S(=O)([N-]S(=O)(=O)C(F)(F)F)C(F)(F)F: the activity coefficient runs as follows: (318.15 K) 110 ± 8; (328.15 K) 93.7 ± 6.4; (338.15 K) 83.6 ± 5.7; (348.15 K) 71.9 ± 4.9; (358.15 K) 64.4 ± 4.4; (368.15 K) 58.6 ± 4.
In the case of `CCOC(C)=O` [ethyl acetate] + C[N+]1(CCCO)CCOCC1.O=S(=O)([N-]S(=O)(=O)C(F)(F)F)C(F)(F)F, the activity coefficient turned out to be 1.5 ± 0.1 (318.15 K); 1.56 ± 0.1 (328.15 K); 1.61 ± 0.11 (338.15 K); 1.66 ± 0.11 (348.15 K); 1.7 ± 0.11 (358.15 K); 1.77 ± 0.12 (368.15 K).
With `Cc1ccccc1` [toluene] + C[N+]1(CCCO)CCOCC1.O=S(=O)([N-]S(=O)(=O)C(F)(F)F)C(F)(F)F, the activity coefficient is 4.03 ± 0.27 (318.15 K); 4.08 ± 0.28 (328.15 K); 4.11 ± 0.28 (338.15 K); 4.16 ± 0.28 (348.15 K); 4.19 ± 0.29 (358.15 K); 4.22 ± 0.29 (368.15 K).
With `CCC(C)CC` [3-methylpentane] + C[N+]1(CCCO)CCOCC1.O=S(=O)([N-]S(=O)(=O)C(F)(F)F)C(F)(F)F, the activity coefficient was found to be 273 ± 19 (298.15 K), 201 ± 14 (308.15 K) and 152 ± 10 (318.15 K).
Turning to `CCC(C)(C)OC` [2-methoxy-2-methylbutane] + C[N+]1(CCCO)CCOCC1.O=S(=O)([N-]S(=O)(=O)C(F)(F)F)C(F)(F)F, the activity coefficient runs as follows: (318.15 K) 8.7 ± 0.59; (328.15 K) 8.75 ± 0.6; (338.15 K) 8.8 ± 0.6; (348.15 K) 8.86 ± 0.6; (358.15 K) 8.89 ± 0.61; (368.15 K) 8.93 ± 0.61.
`CC(C)=O` [acetone] + C[N+]1(CCCO)CCOCC1.O=S(=O)([N-]S(=O)(=O)C(F)(F)F)C(F)(F)F: the activity coefficient by setting is: (318.15 K) 0.486 ± 0.037; (328.15 K) 0.517 ± 0.039; (338.15 K) 0.543 ± 0.04; (348.15 K) 0.572 ± 0.041; (358.15 K) 0.596 ± 0.042; (368.15 K) 0.63 ± 0.04.
As for `CC1CCCCC1` [methylcyclohexane] + C[N+]1(CCCO)CCOCC1.O=S(=O)([N-]S(=O)(=O)C(F)(F)F)C(F)(F)F, the activity coefficient is 102 ± 7 (318.15 K); 84.7 ± 5.8 (328.15 K); 73.3 ± 5 (338.15 K); 64.4 ± 4.4 (348.15 K); 55 ± 3.8 (358.15 K); 49.1 ± 3.4 (368.15 K).
`C1CCCC1` [cyclopentane] + C[N+]1(CCCO)CCOCC1.O=S(=O)([N-]S(=O)(=O)C(F)(F)F)C(F)(F)F: the activity coefficient (318.15 K) was determined as 41 ± 2.8; the activity coefficient (328.15 K) was 34.7 ± 2.4; the activity coefficient (338.15 K) came out at 30.6 ± 2.1; the activity coefficient (348.15 K) was 27.2 ± 1.9; the activity coefficient (358.15 K) turned out to be 23.5 ± 1.6; the activity coefficient (368.15 K) amounted to 21.4 ± 1.5.
Regarding `COC(C)=O` [methyl ethanoate] + C[N+]1(CCCO)CCOCC1.O=S(=O)([N-]S(=O)(=O)C(F)(F)F)C(F)(F)F, the activity coefficient (318.15 K) worked out at 0.926 ± 0.059; the activity coefficient (328.15 K) was 0.971 ± 0.061; the activity coefficient (338.15 K) worked out at 1.02 ± 0.06; the activity coefficient (348.15 K) was found to be 1.06 ± 0.07; the activity coefficient (358.15 K) was determined as 1.1 ± 0.07; the activity coefficient (368.15 K) was 1.14 ± 0.07.
In the case of `CCC(=O)OC` [methyl propanoate] + C[N+]1(CCCO)CCOCC1.O=S(=O)([N-]S(=O)(=O)C(F)(F)F)C(F)(F)F, the activity coefficient by setting is: (318.15 K) 1.45 ± 0.1; (328.15 K) 1.51 ± 0.1; (338.15 K) 1.57 ± 0.1; (348.15 K) 1.63 ± 0.11; (358.15 K) 1.68 ± 0.11; (368.15 K) 1.74 ± 0.12.
With `CCCC(=O)OC` [methyl butanoate] + C[N+]1(CCCO)CCOCC1.O=S(=O)([N-]S(=O)(=O)C(F)(F)F)C(F)(F)F, the activity coefficient reads like this: (318.15 K) 2.41 ± 0.16; (328.15 K) 2.48 ± 0.17; (338.15 K) 2.56 ± 0.17; (348.15 K) 2.62 ± 0.18; (358.15 K) 2.68 ± 0.18; (368.15 K) 2.75 ± 0.19.
In the case of `C=CCCCCCC` [oct-1-ene] + C[N+]1(CCCO)CCOCC1.O=S(=O)([N-]S(=O)(=O)C(F)(F)F)C(F)(F)F, the activity coefficient reads like this: (318.15 K) 133 ± 9; (328.15 K) 117 ± 8; (338.15 K) 106 ± 7; (348.15 K) 94.6 ± 6.5; (358.15 K) 85.2 ± 5.8; (368.15 K) 77.2 ± 5.3.
Turning to `CCC(C)O` (configuration not stated) [butan-2-ol] + C[N+]1(CCCO)CCOCC1.O=S(=O)([N-]S(=O)(=O)C(F)(F)F)C(F)(F)F, the activity coefficient (318.15 K) was 2.59 ± 0.18; the activity coefficient (328.15 K) came to 2.52 ± 0.17; the activity coefficient (338.15 K) amounted to 2.46 ± 0.17; the activity coefficient (348.15 K) turned out to be 2.4 ± 0.16; the activity coefficient (358.15 K) is 2.34 ± 0.16; the activity coefficient (368.15 K) is 2.29 ± 0.16.
Take `CCCCCCCCCC` [decane] + C[N+]1(CCCO)CCOCC1.O=S(=O)([N-]S(=O)(=O)C(F)(F)F)C(F)(F)F: the activity coefficient (318.15 K) was 624 ± 43; the activity coefficient (328.15 K) was 543 ± 37; the activity coefficient (338.15 K) was found to be 479 ± 33; the activity coefficient (348.15 K) came out at 419 ± 29; the activity coefficient (358.15 K) was 363 ± 25; the activity coefficient (368.15 K) worked out at 328 ± 23.
With `CCC(=O)CC` [pentan-3-one] + C[N+]1(CCCO)CCOCC1.O=S(=O)([N-]S(=O)(=O)C(F)(F)F)C(F)(F)F, the activity coefficient is, setting by setting: (318.15 K) 1.28 ± 0.08; (328.15 K) 1.33 ± 0.09; (338.15 K) 1.4 ± 0.09; (348.15 K) 1.45 ± 0.1; (358.15 K) 1.52 ± 0.1; (368.15 K) 1.57 ± 0.1.
